# Where two headings read alike, the source gives them in different places.
# What was measured:
# [1] = Example 6 pharmacokinetics assay for efficacy study (plasma, liver); type: in vivo, BALB/c nude mice; conditions: 10 mg/kg, p.o., BID × 21 days; for concentration at 6 h: mouse, po
# Procedure: For efficacy study, compounds were tested in the A375 human melanoma xenografts. Known BRAF inhibitors encorafenib, and dabrafenib were used as positive controls. Encorafenib and dabrafenib were administered to BALB/c nude mice bearing A375 tumors on PG-D1 and dosed PO daily (QD) for 3 weeks. Encorafenib was dosed at 35 mg/kg. Dabrafenib was dosed at 100 mg/kg. Compound 83, Compound 93, Compound 70, and Compound 54 were administered to BALB/c nude mice bearing A375 tumors on PG-DO and dosed PO twice per day (BID) for 3 weeks. Compound 83, Compound 93, Compound 70, and Compound 54 were dosed at 10 mg/kg.
# (§1) The plasma samples were collected at predetermined time points for PK analysis. The mice were euthanized at predetermined time points post the treatment. The blood samples were collected into the 1.5 mL Eppendorf tubes containing 15 μL of 0.5 M EDTA-K2. And then the anticoagulant blood samples were centrifuged at 2,500 g at 4° C. for 15 minutes. The plasma samples were separated into 2 aliquots. The 1st was used for PK analysis, and the 2nd served as backup. The samples were stored at −80° C. before bioanalysis.
# (§2) Liver samples were collected at predetermined time points for PK analysis. The left lobe of the liver was dissected out and split into 2 parts. The 1st part was used for PK analysis and the 2nd part served as the backup for the study. The samples were transferred into pre-labeled tubes and quickly froze in liquid nitrogen within 2 minutes after dissection. The samples were stored at −80° C. before bioanalysis.
# For efficacy study, the harvested plasma and liver were processed for pharmacokinetics analysis by LC/MS/MS with a concentration range of 2.00-2000 ng/mL for Encorafenib and Dabrafenib in plasma, 0.20-200 ng/mL for Encorafenib and Dabrafenib in liver, 50.0-50000 ng/mL for compound 83 and compound 70 in plasma, 20.0-20000 ng/mL for Compound 93 and Compound 54 in plasma, 5.00-5000 ng/mL for compound 93, compound 83, compound 70 and compound 54 in liver.
# [2] = Example 6 pharmacokinetics assay for PKPD study (plasma, tumor, liver); type: in vivo, BALB/c nude mice; conditions: 10 mg/kg, single dose; for concentration at 6 h / concentration at 12 h / concentration at 1 h / concentration at 24 h: mouse, po
# Procedure: For the pharmacokinetic/pharmacodynamic (PKPD) study, compounds were tested in the A375 human melanoma xenografts. Known BRAF inhibitors encorafenib, and dabrafenib were used as positive controls. Encorafenib, dabrafenib, Compound 83, Compound 93, Compound 70, and Compound 54 were administered to BALB/c nude mice bearing A375 tumors on PG-D1 and dosed orally (PO) once. Encorafenib was dosed at 35 mg/kg. Dabrafenib was dosed at 100 mg/kg. Compound 83, Compound 93, Compound 70, and Compound 54 were dosed at 10 mg/kg. The plasma and tumor samples were collected at 1, 6, 12 and 24 hours, and liver samples were collected at 6 hours and 12 hours post the single dose. This study was non-GLP study.
# as §1
# The tumor samples were collected at predetermined time points for PK and WB analysis (B-RAF and p-ERK). The tumor was dissected out and split into 3 parts. The 1st part was used for PK analysis, the 2nd part was used for WB analysis and the last one served as backup for study. The samples were transferred into pre-labeled tubes and quickly froze in liquid nitrogen within 2 minutes after dissection. The samples were stored at −80° C. before bioanalysis.
# as §2
# For PKPD study, the harvested plasma, tumor and liver were processed for pharmacokinetics analysis by LC/MS/MS with a concentration range of 0.5-1000 ng/mL for Encorafenib and Dabrafenib in plasma, 0.05-100 ng/mL for Encorafenib and Dabrafenib in tumor, 0.2-200 ng/mL for Encorafenib and Dabrafenib in liver, 2.0-2000 ng/mL for compound 93, compound 83, compound 54 and compound 70 in liver, 50.0-50000 ng/mL for compound 83 and compound 70 in plasma, 0.5-1000 ng/mL for compound 83 and compound 70 in tumor, 1.0-2000 ng/mL for compound 93 in plasma, 10.0-20000 ng/mL for compound 54 in plasma, 0.5-500 ng/mL for compound 93 and compound 54 in tumor.
smiles,measurement,setting,value
"CCN(C)S(=O)(=O)Nc1ccc(F)c(Oc2ccc3ncn([C@H]4COC5(CCN(C6CC(c7cc8c(cc7F)c(N7CCC(=O)NC7=O)nn8C)C6)CC5)C4)c(=O)c3c2)c1C#N (single isomer, unassigned) [Compound 70]",Concentration in Liver (mean ± SEM),[1]; 6 h,6392 ± 570 ng/g
same,Concentration in Plasma (mean ± SEM),[1]; 6 h,16083 ± 1345 ng/mL
same,Concentration in Plasma (mean ± SEM),[2]; 1 h,15100 ± 3559 ng/mL
same,Concentration in Tumor (mean ± SEM),[2]; 1 h,816 ± 239 ng/g
same,Concentration in Liver (mean ± SEM),[2]; 6 h,4363 ± 1423 ng/g
same,Concentration in Plasma (mean ± SEM),[2]; 6 h,8563 ± 2312 ng/mL
same,Concentration in Tumor (mean ± SEM),[2]; 6 h,1529 ± 458 ng/g
same,Concentration in Liver (mean ± SEM),[2]; 12 h,921 ± 317 ng/g
same,Concentration in Plasma (mean ± SEM),[2]; 12 h,2105 ± 800 ng/mL
same,Concentration in Tumor (mean ± SEM),[2]; 12 h,564 ± 206 ng/g
same,Concentration in Plasma (mean ± SEM),[2]; 24 h,106 ± 10.8 ng/mL
same,Concentration in Tumor (mean ± SEM),[2]; 24 h,21.9 ± 4.93 ng/g
"CCN(C)S(=O)(=O)Nc1ccc(F)c(Oc2ccc3ncn(C4CC5(CCN(C6CCC(c7cc8c(cc7F)c(N7CCC(=O)NC7=O)nn8C)CC6F)CC5)C4)c(=O)c3c2)c1C#N (single isomer, unassigned) [Compound 83, 6-[2-cyano-3-[[ethyl(methyl)sulfamoyl]amino]-6-fluoro-phenoxy]-3-[7-[4-[3-(2,4-dioxohexahydropyrimidin-1-yl)-5-fluoro-1-methyl-indazol-6-yl]-2-fluoro-cyclohexyl]-7-azaspiro[3.5]nonan-2-yl]-4-oxo-quinazoline]",concentration at 6 h,"[1]; liver, read-out: Concentration in Liver (mean ± SEM)",11000 ± 1050 ng/g
same,concentration at 6 h,"[1]; plasma, read-out: Concentration in Plasma (mean ± SEM)",17100 ± 1510 ng/mL
same,concentration at 6 h,"[2]; liver, 6 h, read-out: Concentration in Liver (mean ± SEM)",6990 ± 166 ng/g
same,concentration at 12 h,"[2]; liver, 12 h, read-out: Concentration in Liver (mean ± SEM)",1580 ± 273 ng/g
same,concentration at 1 h,"[2]; plasma, 1 h, read-out: Concentration in Plasma (mean ± SEM)",20100 ± 1510 ng/mL
same,concentration at 6 h,"[2]; plasma, 6 h, read-out: Concentration in Plasma (mean ± SEM)",10400 ± 338 ng/mL
same,concentration at 12 h,"[2]; plasma, 12 h, read-out: Concentration in Plasma (mean ± SEM)",2420 ± 572 ng/mL
same,concentration at 24 h,"[2]; plasma, 24 h, read-out: Concentration in Plasma (mean ± SEM)",172 ng/mL
same,concentration at 1 h,"[2]; tumor, 1 h, read-out: Concentration in Tumor (mean ± SEM)",1650 ± 249 ng/g
same,concentration at 6 h,"[2]; tumor, 6 h, read-out: Concentration in Tumor (mean ± SEM)",1820 ± 354 ng/g
same,concentration at 12 h,"[2]; tumor, 12 h, read-out: Concentration in Tumor (mean ± SEM)",751 ± 128 ng/g
same,concentration at 24 h,"[2]; tumor, 24 h, read-out: Concentration in Tumor (mean ± SEM)",57.6 ± 37 ng/g
